Source: PMC6017736, “Indole-3-Carbonitriles as DYRK1A Inhibitors by Fragment-Based Drug Design” (Molecules : A Journal of Synthetic Chemistry and Natural …, 2018)
Marks after values point to notes of the source that are not given here.

Experiments:
DYRK1B = DYRK1B (Homo sapiens, UniProt Q9Y463); test: Protein kinase assay ([γ-33P]-ATP, RS peptide substrate), DYRK1B; format: biochemical; settings: 15 µM ATP; read-out: IC50 DYRK 1B
Experimental: (§1) DYRK1A, 1B, 2, 3 (human, recombinant, expressed in E. coli as GST fusion proteins) and CLK1, 2, 3, and 4 (mouse, recombinant, expressed in E. coli as GST fusion proteins) were assayed as described for GSK-3 in Buffer A (supplemented extemporaneously with 0.15 mg BSA/mL + 1 mM DTT) with 1 µg of RS peptide ([…]) as a substrate.

DYRK2 = molecular target: T1, DYRK2 (Homo sapiens, UniProt Q92630); test: Protein kinase assay ([γ-33P]-ATP, RS peptide substrate), DYRK2; format: biochemical; settings: for IC50: 15 µM ATP; for inhibition at 10 µM: 10 µM compound, read-out: Inhibition at 10 µM DYRK2 (class symbol)
T1 sequence (Q92630 1-601): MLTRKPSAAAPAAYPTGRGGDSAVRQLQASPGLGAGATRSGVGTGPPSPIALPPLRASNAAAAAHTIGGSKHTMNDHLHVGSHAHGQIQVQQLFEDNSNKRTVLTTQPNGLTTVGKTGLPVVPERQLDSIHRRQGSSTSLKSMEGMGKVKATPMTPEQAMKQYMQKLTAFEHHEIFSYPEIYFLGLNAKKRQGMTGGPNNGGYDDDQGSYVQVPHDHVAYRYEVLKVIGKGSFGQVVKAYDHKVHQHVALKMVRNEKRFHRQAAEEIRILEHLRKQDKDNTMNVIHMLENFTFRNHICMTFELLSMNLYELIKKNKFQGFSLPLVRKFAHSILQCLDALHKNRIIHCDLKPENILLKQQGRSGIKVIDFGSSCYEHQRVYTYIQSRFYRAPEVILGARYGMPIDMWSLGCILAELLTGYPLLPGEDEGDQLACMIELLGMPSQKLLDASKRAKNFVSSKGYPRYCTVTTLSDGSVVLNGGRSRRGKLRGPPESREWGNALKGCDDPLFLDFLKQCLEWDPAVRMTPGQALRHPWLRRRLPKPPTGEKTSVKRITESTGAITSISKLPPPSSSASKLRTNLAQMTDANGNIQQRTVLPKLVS
Experimental: as §1

DYRK3 = molecular target: T2, DYRK3 (Homo sapiens, UniProt O43781); test: Protein kinase assay ([γ-33P]-ATP, RS peptide substrate), DYRK3; format: biochemical; settings: for IC50: 15 µM ATP; for inhibition at 10 µM: 10 µM compound, read-out: Inhibition at 10 µM DYRK3 (class symbol)
T2 sequence (O43781 1-588): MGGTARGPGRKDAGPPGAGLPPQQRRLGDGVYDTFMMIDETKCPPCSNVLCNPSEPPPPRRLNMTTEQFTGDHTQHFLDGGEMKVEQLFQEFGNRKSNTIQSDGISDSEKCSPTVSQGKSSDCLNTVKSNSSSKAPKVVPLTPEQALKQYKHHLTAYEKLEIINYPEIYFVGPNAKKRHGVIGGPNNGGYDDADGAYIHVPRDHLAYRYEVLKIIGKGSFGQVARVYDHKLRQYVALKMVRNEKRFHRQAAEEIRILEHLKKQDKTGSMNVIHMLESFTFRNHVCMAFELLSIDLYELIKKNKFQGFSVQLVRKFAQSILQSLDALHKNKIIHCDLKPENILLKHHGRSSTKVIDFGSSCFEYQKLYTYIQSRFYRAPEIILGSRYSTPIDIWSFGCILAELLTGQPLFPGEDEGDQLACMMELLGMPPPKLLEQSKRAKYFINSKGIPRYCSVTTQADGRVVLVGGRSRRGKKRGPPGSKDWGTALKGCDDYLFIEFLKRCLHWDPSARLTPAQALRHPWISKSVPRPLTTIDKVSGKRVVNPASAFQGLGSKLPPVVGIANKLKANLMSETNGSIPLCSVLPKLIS
Experimental: as §1

CLK1 = CLK1 (Mus musculus, UniProt P22518); test: Protein kinase assay ([γ-33P]-ATP, RS peptide substrate), CLK1; format: biochemical; settings: 15 µM ATP
Sequence of CLK1 (P22518 whole entry): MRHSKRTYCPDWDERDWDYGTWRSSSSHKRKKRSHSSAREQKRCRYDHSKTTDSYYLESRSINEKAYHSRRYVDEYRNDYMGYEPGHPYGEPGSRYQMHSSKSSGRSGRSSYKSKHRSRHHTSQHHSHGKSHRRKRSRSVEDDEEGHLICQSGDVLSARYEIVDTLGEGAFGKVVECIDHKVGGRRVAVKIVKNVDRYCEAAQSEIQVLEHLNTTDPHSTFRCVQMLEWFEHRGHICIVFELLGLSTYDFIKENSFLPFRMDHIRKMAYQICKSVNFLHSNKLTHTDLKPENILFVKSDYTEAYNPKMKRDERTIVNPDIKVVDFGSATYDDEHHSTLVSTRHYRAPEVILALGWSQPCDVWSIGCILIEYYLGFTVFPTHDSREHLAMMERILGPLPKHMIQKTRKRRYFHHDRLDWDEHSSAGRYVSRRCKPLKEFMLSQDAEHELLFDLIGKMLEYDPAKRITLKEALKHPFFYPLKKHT
Experimental: as §1

CLK2 = CLK2 (Mus musculus, UniProt O35491); test: Protein kinase assay ([γ-33P]-ATP, RS peptide substrate), CLK2; format: biochemical; settings: for IC50: 15 µM ATP
Sequence of CLK2 (O35491 whole entry): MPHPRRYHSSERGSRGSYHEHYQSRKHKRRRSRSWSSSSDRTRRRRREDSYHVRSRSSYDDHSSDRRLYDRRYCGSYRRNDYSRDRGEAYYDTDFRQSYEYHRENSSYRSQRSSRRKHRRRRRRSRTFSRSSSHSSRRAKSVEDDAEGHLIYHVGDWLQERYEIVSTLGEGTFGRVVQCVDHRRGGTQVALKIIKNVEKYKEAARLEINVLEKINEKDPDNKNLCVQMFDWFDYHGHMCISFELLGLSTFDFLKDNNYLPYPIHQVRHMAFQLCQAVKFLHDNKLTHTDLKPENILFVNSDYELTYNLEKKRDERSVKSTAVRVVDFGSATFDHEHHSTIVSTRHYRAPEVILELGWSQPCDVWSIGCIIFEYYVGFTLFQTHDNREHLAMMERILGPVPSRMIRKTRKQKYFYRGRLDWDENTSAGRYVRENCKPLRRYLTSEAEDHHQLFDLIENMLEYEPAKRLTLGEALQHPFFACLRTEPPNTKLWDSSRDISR
Experimental: as §1

CLK3 = CLK3 (Mus musculus, UniProt O35492); test: Protein kinase assay ([γ-33P]-ATP, RS peptide substrate), CLK3; format: biochemical; settings: for IC50: 15 µM ATP; for inhibition at 10 µM: 10 µM compound, read-out: Inhibition at 10 µM CLK3 (class symbol)
Sequence of CLK3 (O35492 whole entry): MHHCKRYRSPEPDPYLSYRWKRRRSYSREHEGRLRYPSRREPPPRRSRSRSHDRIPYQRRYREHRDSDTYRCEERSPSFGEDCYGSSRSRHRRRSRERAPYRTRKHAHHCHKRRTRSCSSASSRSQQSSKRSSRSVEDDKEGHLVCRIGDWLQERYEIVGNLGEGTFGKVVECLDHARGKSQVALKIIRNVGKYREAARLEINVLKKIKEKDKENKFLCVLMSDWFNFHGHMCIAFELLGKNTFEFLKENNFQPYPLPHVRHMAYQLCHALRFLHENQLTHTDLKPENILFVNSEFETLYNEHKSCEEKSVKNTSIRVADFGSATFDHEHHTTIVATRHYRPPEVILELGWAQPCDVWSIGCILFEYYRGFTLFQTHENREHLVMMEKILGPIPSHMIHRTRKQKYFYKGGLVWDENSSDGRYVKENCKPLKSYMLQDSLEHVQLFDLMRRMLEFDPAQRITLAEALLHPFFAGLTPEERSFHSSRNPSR
Experimental: as §1

CLK4 = CLK4 (Mus musculus, UniProt O35493); test: Protein kinase assay ([γ-33P]-ATP, RS peptide substrate), CLK4; format: biochemical; settings: 15 µM ATP
Sequence of CLK4 (O35493 whole entry): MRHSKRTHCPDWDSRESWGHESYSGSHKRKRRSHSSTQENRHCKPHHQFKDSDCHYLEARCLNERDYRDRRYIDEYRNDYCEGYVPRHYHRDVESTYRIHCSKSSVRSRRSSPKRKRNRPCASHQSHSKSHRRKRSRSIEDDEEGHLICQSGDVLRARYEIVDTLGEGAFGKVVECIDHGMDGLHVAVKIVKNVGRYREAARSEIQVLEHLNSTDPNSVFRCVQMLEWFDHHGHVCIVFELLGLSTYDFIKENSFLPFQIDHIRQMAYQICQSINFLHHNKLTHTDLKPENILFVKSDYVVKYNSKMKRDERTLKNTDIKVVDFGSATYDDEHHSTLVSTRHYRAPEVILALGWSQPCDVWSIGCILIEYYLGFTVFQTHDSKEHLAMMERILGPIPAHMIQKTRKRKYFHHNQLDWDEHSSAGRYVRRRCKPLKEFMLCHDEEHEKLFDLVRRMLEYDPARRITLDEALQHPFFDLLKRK
Experimental: as §1

[1] = Thermodynamic solubility, shake-flask method with HPLC quantification; format: physicochemical; settings: phosphate buffer pH 7.4, 25 °C
Experimental: For solubility assays an aqueous phosphate buffer pH 7.4 was used. The buffer was prepared by dissolving Na2HPO4 × 2 H2O (298 mg), KH2PO4 (19 mg) and NaCl (800 mg) in water (100 mL). The pH was adjusted to 7.4 by addition of hydrochloric acid. The thermodynamic solubility was determined using a shake-flask method with quantification by a HPLC method. The test compounds (500 µg) were incubated with aqueous phosphate buffer pH 7.4 (400 µL) in sealed Whatman MiniUniPrep vials (GE Healthcare, Freiburg, Germany). The mixtures were shaken at 25 °C and 400 rpm for 24–96 h (IKA KS 3000 ic control, IKA-Werke, Staufen, Germany). After 24 h, 48 h and 72 h, the mixtures were visually inspected for remaining solids and the solids were filtered off. The concentrations in the resulting saturated solutions were quantified by isocratic HPLC using calibration with external standard. If equilibrium was not reached after 72 h, solubility of a further sample was determined after 96 h. For calibration, a stock solution of 10 mM of the test compounds in DMSO was prepared and the stock solution was diluted with ACN to suitable concentrations. The AUC at the wavelength maxima was used for quantification.

[2] = Kinetic solubility, laser nephelometry; format: physicochemical; settings: phosphate buffer pH 7.4, nephelometry
Experimental: The kinetic solubility was determined using laser nephelometry. A stock solution of the test compounds in DMSO was prepared and further diluted with DMSO to achieve a dilution series of 8–12 solutions with different concentrations. The DMSO solutions (2 µL) were placed in a row on a 96-well plate and diluted with aqueous phosphate buffer pH 7.4 (198 µL). The well plate was scanned by a nephelometer (Nephelostar Plus, BMG Labtech, Ortenberg, Germany). Unsolved particles scatter the laser light which is detected by the nephelometer. The intensity of the scattered light is proportional to the particle concentration in the suspension. The intensity of the scattered light was plotted versus the concentration to obtain a kick off curve. The concentration at which the compounds began to precipitate was directly read out from the kick off curve.

DYRK1A [3] = molecular target: T3, DYRK1A (Homo sapiens, UniProt Q13627); test: Protein kinase assay ([γ-33P]-ATP, RS peptide substrate), DYRK1A; format: biochemical; settings: 15 µM ATP; read-out: IC50 DYRK 1A
DYRK1A [4] = molecular target: T3, DYRK1A; test: Ligand-lipophilicity efficiency (pIC50 minus calculated logP)
Experimental: All new compounds were evaluated based on their physicochemical properties regarding Lipinski’s rule of five and the ligand-lipophilicity efficiency (LLE). Both concepts are used to assess the druglikeness of drug development candidates. […] LLE is calculated from pIC50 minus calculated logP [46].

GSK-3 = test: Protein kinase assay ([γ-33P]-ATP, GS-1 substrate), GSK-3; settings: for Inhibition at 10 µM GSK3 (class symbol): 10 µM compound; for IC50: read-out: IC50 GSK3, 15 µM ATP
Experimental: First, the kinases were incubated with 10 µM solutions of the compounds and the residual activities compared to controls were measured.
Controls were performed with appropriate dilutions of DMSO. The GS-1 and RS peptide substrates were obtained from Proteogenix (Oberhausbergen, France).
After 30 min incubation at 30 °C, the reaction was stopped by harvesting onto P81 phosphocellulose supernatant (Whatman) using a FilterMate harvester (Packard) and washing in 1% phosphoric acid. Scintillation fluid was added and the radioactivity measured in a Packard counter [52].
All data points for construction of dose response curves were recorded in triplicate.

[5] = Cytotoxicity, cell viability by tetrazolium dye assay (XTT assay); format: cell-based; settings: human, HeLa cells, read-out: Viability of treated HeLa cells relative to control cells
Experimental: To evaluate the applicability of the 2-substituted indole-3-carbonitrile compounds in cell culture experiments, we assessed toxicity of 6f, 6h, 6s and 13b on HeLa cells by viability assays (Table 4).
The inhibitors were added to the cultured cells from stock solutions in DMSO to the desired final concentration. For cytotoxicity assays, HeLa cells were grown in 96-well plates (20,000–30,000 cells per well) and incubated with the test compounds for 3 days before cell viability was evaluated with the help of a tetrazolium dye assay (XTT assay, AppliChem GmbH, Darmstadt, Germany).

[6] = pIC50 (DYRK1A) minus calculated logP

Sequence of DYRK1B (Q9Y463 whole entry, the tested form may be a part): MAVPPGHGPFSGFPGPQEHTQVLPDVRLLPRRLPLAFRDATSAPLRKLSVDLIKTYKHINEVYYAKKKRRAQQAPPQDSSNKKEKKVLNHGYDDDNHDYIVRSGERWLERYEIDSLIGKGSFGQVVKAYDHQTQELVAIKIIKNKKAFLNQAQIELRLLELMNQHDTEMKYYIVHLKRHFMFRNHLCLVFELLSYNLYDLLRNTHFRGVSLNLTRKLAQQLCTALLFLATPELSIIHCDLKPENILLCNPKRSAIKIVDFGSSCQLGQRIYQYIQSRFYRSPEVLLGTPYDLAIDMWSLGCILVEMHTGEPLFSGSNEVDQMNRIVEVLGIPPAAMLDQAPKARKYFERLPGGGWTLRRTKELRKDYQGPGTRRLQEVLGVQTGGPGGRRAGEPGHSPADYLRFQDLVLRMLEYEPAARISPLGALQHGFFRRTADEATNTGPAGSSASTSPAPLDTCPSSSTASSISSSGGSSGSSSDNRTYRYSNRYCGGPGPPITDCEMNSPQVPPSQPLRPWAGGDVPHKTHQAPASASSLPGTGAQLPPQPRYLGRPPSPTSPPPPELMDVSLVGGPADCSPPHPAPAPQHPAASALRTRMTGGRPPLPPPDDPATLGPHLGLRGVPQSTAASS

Row | SMILES | IC50 (DYRK1B) [nM] | IC50 (DYRK2) [nM] | IC50 (DYRK3) [nM] | IC50 (CLK1) [nM] | IC50 (CLK2) [nM] | IC50 (CLK3) [nM] | IC50 (CLK4) [nM] | Sexp., therm., pH 7.4 [1] | Sexp., kin., pH 7.4 [2] | IC50 (DYRK1A [3]) [nM] | inhibition at 10 µM (DYRK2) [%] | inhibition at 10 µM (DYRK3) [%] | inhibition at 10 µM (CLK3) [%] | LLE (DYRK1A [4]; Table S2) | also measured
1 | N#Cc1c[nH]c2c(Br)cccc12 [Compound 6b, 7-Bromo-1H-indole-3-carbonitrile] | 5900 | > 10000 | > 10000 | 2900 | > 10000 | > 10000 | 4000 | 136 ± 11 µM | 142 ± 14 µM |  |  |  |  |  | 
2 | N#Cc1c[nH]c2c(I)cccc12 [Compound 6c, 7-Iodo-1H-indole-3-carbonitrile] | 1800 | 8000 | > 10000 | 1900 | 8000 | > 10000 | 1800 | 45.2 (44.8–45.6) µM | 261 (254–267) µM |  |  |  |  |  | 
3 | N#Cc1c(-c2ccccc2)[nH]c2ccccc12 [Compound 6d, 2-Phenyl-1H-indole-3-carbonitrile] | 6000 |  |  | 800 | > 10000 |  | 2000 |  |  | 400 | < 20 | < 20 | < 20 | 2.90 | Inhibition at 10 µM GSK3 (class symbol) (GSK-3): - (-: less than 20% inhibition at 10 µM, IC50 was not determined)
4 | N#Cc1c(-c2ccccc2)[nH]c2c(Cl)cccc12 [Compound 6f, 7-Chloro-2-phenyl-1H-indole-3-carbonitrile] | > 10000 | > 10000 | > 10000 | 70 | > 10000 | > 10000 | 120 | <0.5 µM | 14.7 ± 4.5 µM |  |  |  |  |  | viability at 3 days, 1 µM [5]: 94%; viability at 3 days, 3 µM [5]: 98%; viability at 3 days, 10 µM [5]: 85%
5 | N#Cc1c(-c2ccccc2)[nH]c2c(Br)cccc12 [Compound 6g, 7-Bromo-2-phenyl-1H-indole-3-carbonitrile] | 120 | > 10000 | > 10000 | 67 | 433 | > 10000 | 33 | <0.5 µM | 14.8 ± 0.26 µM | 25 |  |  |  | 3.34 | LLE (DYRK1A [4]; [6]): 3.34
6 | N#Cc1c(-c2cccnc2)[nH]c2c(I)cccc12 [Compound 6p, 7-Iodo-2-(pyridin-3-yl)-1H-indole-3-carbonitrile] | 300 |  |  | 200 | > 10000 |  | > 10000 |  | 10.0 (7.21–12.9) µM | 80 | < 20 | < 20 | < 20 | 3.89 | LLE (DYRK1A [4]; [6]): 3.89
7 | CC(C)c1[nH]c2c(I)cccc2c1C#N [Compound 6q, 7-Iodo-2-isopropyl-1H-indole-3-carbonitrile] | 530 | > 10000 | > 10000 | 100 | 700 | > 10000 | 100 |  |  | 280 |  |  |  | 2.61 | IC50 (GSK-3): 1300 nM
8 | Cn1cc(C#N)c2cccc(Br)c21 [Compound 13d, 7-Bromo-1-methyl-1H-indole-3-carbonitrile] | > 10000 | > 10000 | > 10000 | 3330 | > 10000 | > 10000 | > 10000 |  |  | 1900 |  |  |  | 2.80 | IC50 (GSK-3): > 10000 nM
9 | Cn1c(-c2ccccc2)c(C#N)c2cccc(Br)c21 [Compound 13e, 7-Bromo-1-methyl-2-phenyl-1H-indole-3-carbonitrile] | 10000 |  |  | > 10000 |  |  | 1000 |  |  | 2300 | < 20 | < 20 | < 20 | 1.15 | inhibition at 10 µM (CLK2; 10 µM compound, read-out: Inhibition at 10 µM CLK2 (class symbol)): < 20%; Inhibition at 10 µM GSK3 (class symbol) (GSK-3): - (-: less than 20% inhibition at 10 µM, IC50 was not determined)
10 | N#Cc1c(CC(O)CO)[nH]c2c(Cl)cccc12 (centres unmarked) [Compound 14, 7-Chloro-2-(2,3-dihydroxypropyl)-1H-indole-3-carbonitrile] | 4200 |  |  | 2000 | 10000 |  | 2000 | 3447 ± 182 ^c µM |  | 2000 | < 20 | < 20 | < 20 | 4.59 | LLE (DYRK1A [4]; [6]): 4.59; IC50 (GSK-3): 2000 nM
11 | O=C(O)c1nc2ccccc2c2[nH]c3c(I)cccc3c12 [KuFal194 (5), 10-iodo-11H-indolo[3,2-c]quinoline-6-carboxylic acid, reference compound] |  |  |  |  |  |  |  | < 0.5 µM | 5.28 (4.99–5.57) µM |  |  |  |  |  | viability at 3 days, 1 µM [5]: 78%; viability at 3 days, 3 µM [5]: 75%; viability at 3 days, 10 µM [5]: 45%
